In brackets after ≈: the same amount, converted by molar mass.
Tested on: Mycobacterium tuberculosis
Assay: Antimycobacterial activity against extensively drug resistant Mycobacterium tuberculosis H37Rv ATCC 27294 after 28 days by agar dilution method
Format: functional
Conditions: H37Rv ATCC 27294, 672 h

SMILES | MIC [µM]
Cc1nn2c(/C=N/Nc3nc(-c4ccc(F)cc4)cs3)c(-c3ccc(Cl)cc3)nc2s1 | 53.9 (≈ 25.3 µg/mL)
Cc1ccc(-c2nc3sc(C)nn3c2/C=N/Nc2nc(-c3ccc(Cl)cc3)cs2)cc1 | 53.9 (≈ 25 µg/mL)
Cc1ccc(-c2csc(N/N=C/c3c(-c4ccc(C)cc4)nc4sc(C)nn34)n2)cc1 | 56.3 (≈ 25 µg/mL)
COc1ccc(-c2csc(N/N=C/c3c(-c4ccc(OC)cc4)nc4sc(C(F)(F)F)nn34)n2)cc1 | 94.3 (≈ 50 µg/mL)
COc1ccc(-c2csc(N/N=C/c3c(-c4ccc(C)cc4)nc4sc(C)nn34)n2)cc1 | 109 (≈ 50 µg/mL)
Fc1ccc(-c2csc(N/N=C/c3c(-c4ccc(Cl)cc4)nc4sc(C(F)(F)F)nn34)n2)cc1 | 12 (≈ 6.26 µg/mL)
Cc1ccc(-c2csc(N/N=C/c3c(-c4ccc(Cl)cc4)nc4sc(C)nn34)n2)cc1 | 108 (≈ 50.1 µg/mL)
COc1ccc(-c2nc3sc(C(F)(F)F)nn3c2/C=N/Nc2nc(-c3ccc(C)cc3)cs2)cc1 | 24.1 (≈ 12.4 µg/mL)
COc1ccc(-c2nc3sc(C(F)(F)F)nn3c2/C=N/Nc2nc(-c3ccc(F)cc3)cs2)cc1 | 24.1 (≈ 12.5 µg/mL)
Cc1ccc(-c2nc3sc(C)nn3c2/C=N/Nc2nc(-c3ccc(F)cc3)cs2)cc1 | 13.9 (≈ 6.25 µg/mL)
COc1ccc(-c2nc3sc(C)nn3c2/C=N/Nc2nc(-c3ccc([N+](=O)[O-])cc3)cs2)cc1 | 12.7 (≈ 6.25 µg/mL)
COc1ccc(-c2nc3sc(C)nn3c2/C=N/Nc2nc(-c3ccc(C)cc3)cs2)cc1 | 109 (≈ 50 µg/mL)
Cc1ccc(-c2nc3sc(C)nn3c2/C=N/Nc2nc(-c3ccc([N+](=O)[O-])cc3)cs2)cc1 | 26.3 (≈ 12.5 µg/mL)
O=[N+]([O-])c1ccc(-c2csc(N/N=C/c3c(-c4ccc(Cl)cc4)nc4sc(C(F)(F)F)nn34)n2)cc1 | 91.1 (≈ 50.1 µg/mL)
COc1ccc(-c2csc(N/N=C/c3c(-c4ccc(OC)cc4)nc4sc(C)nn34)n2)cc1 | 105 (≈ 50 µg/mL)
COc1ccc(-c2nc3sc(C)nn3c2/C=N/Nc2nc(-c3ccc(F)cc3)cs2)cc1 | 108 (≈ 50 µg/mL)
COc1ccc(-c2csc(N/N=C/c3c(-c4ccc(Cl)cc4)nc4sc(C)nn34)n2)cc1 | 52.1 (≈ 25 µg/mL)
FC(F)(F)c1nn2c(/C=N/Nc3nc(-c4ccc(Cl)cc4)cs3)c(-c3ccc(Cl)cc3)nc2s1 | 92.9 (≈ 50.1 µg/mL)
COc1ccc(-c2nc3sc(C(F)(F)F)nn3c2/C=N/Nc2nc(-c3ccc(Cl)cc3)cs2)cc1 | 93.6 (≈ 50.1 µg/mL)
Cc1nn2c(/C=N/Nc3nc(-c4ccc(Cl)cc4)cs3)c(-c3ccc(Cl)cc3)nc2s1 | 103 (≈ 50 µg/mL)
COc1ccc(-c2csc(N/N=C/c3c(-c4ccc(Cl)cc4)nc4sc(C(F)(F)F)nn34)n2)cc1 | 11.7 (≈ 6.26 µg/mL)
Cc1ccc(-c2csc(N/N=C/c3c(-c4ccc(Cl)cc4)nc4sc(C(F)(F)F)nn34)n2)cc1 | 6.03 (≈ 3.13 µg/mL)
COc1ccc(-c2nc3sc(C)nn3c2/C=N/Nc2nc(-c3ccc(Cl)cc3)cs2)cc1 | 26 (≈ 12.5 µg/mL)
O=C(O)c1cn(C2CC2)c2cc(N3CCNCC3)c(F)cc2c1=O [CIPROFLOXACIN] | 9.44 (≈ 3.13 µg/mL)
CC[C@@H](CO)NCCN[C@@H](CC)CO [ETHAMBUTOL] | 15.3 (≈ 3.13 µg/mL)
NNC(=O)c1ccncc1 [ISONIAZID] | 0.729 (≈ 0.1 µg/mL)

— ChEMBL document CHEMBL3779863, “Ionic liquid-promoted one-pot synthesis of thiazoleimidazo[2,1-b][1,3,4]thiadiazole hybrids and their antitubercular activity” (Medchemcomm, 2016)
